Values after ≈ are worked out from the molar mass of the structure shown. Where two headings read alike, the source gives them in different places.
Experiments:
[1] = target: T1, CYP125 (Mycobacterium tuberculosis, UniProt P9WPP1); test: biochemical; assay type: binding; details: UV-Vis spectroscopy
T1 construct: encoding residues 18-433; twin-strep hexahistidine tag (TEV-cleavable) (N, cleaved yes); made in house; host or cells: E. coli C41(DE3), pET21a
T1 sequence (P9WPP1 18-433 limits assumed): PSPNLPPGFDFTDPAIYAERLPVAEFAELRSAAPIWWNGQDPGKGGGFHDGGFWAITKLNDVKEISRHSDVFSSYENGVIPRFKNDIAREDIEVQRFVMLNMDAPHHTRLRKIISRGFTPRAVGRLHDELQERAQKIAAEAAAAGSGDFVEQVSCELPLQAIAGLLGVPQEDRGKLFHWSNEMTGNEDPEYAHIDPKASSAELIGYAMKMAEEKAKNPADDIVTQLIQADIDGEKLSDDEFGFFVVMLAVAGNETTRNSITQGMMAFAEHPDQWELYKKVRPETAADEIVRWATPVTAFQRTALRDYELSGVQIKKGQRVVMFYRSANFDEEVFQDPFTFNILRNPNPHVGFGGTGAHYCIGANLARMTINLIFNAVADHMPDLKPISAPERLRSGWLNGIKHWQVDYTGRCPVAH

[2] = target: T2, CYP142 (Mycobacterium tuberculosis, UniProt P9WPL5); test: biochemical; details: UV-Vis spectroscopy
T2 sequence (P9WPL5 2-398): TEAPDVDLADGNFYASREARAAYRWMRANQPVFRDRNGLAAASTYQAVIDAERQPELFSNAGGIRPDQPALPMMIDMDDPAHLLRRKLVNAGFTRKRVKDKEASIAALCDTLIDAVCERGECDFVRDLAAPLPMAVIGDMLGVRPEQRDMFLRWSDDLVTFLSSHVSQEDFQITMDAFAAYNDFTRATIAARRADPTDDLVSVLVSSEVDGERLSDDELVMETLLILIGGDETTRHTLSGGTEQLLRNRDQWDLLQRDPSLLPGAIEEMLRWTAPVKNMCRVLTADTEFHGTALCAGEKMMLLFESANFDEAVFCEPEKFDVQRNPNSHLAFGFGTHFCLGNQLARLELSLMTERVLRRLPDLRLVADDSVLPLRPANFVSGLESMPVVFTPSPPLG

[3] = tested on: Mtb H37Rv (ATCC 27294); test: MIC determination against Mtb H37Rv; assay type: cell-based, Mycobacterium tuberculosis
[4] = tested on: Mtb strain KB019; test: microbe, parasite or virus in culture; assay type: cell-based; details: Mycobacterium tuberculosis
[5] = tested on: Mtb strain K18b01MR; test: microbe, parasite or virus in culture; assay type: cell-based; details: Mycobacterium tuberculosis
[6] = tested on: Mtb strain NIH_G269DR; test: microbe, parasite or virus in culture; assay type: cell-based; details: Mycobacterium tuberculosis
[7] = tested on: Mtb strain K03b00DS; test: MIC determination against Mtb K03b00DS (DS); assay type: cell-based; details: Mycobacterium tuberculosis
[8] = tested on: Mtb strain CDC1551; test: MIC determination against Mtb CDC1551 (clinical strain); assay type: cell-based; details: Mycobacterium tuberculosis
[9] = tested on: Mtb strain 53 K113; test: microbe, parasite or virus in culture; assay type: cell-based; details: Mycobacterium tuberculosis
[10] = tested on: Mtb strain 028 K111; test: microbe, parasite or virus in culture; assay type: cell-based; details: Mycobacterium tuberculosis
[11] = target: T2, CYP142; details: read-out: KD (CYP142); UV-Vis spectroscopy
[12] = Mycobacterium tuberculosis, 168 h
[13] = Mycobacterium tuberculosis, 336 h
[14] = Mycobacterium tuberculosis, 168 h, Table S1, H37Rv, […], 1 Week

Work on `CCOC(=O)c1cc2cc(-c3ccncc3)ccc2n1Cc1ccccc1` [Compound 5] yielded a Kd [1] of 0.65 ± 0.06 µM and a Kd [2] of 0.04 ± 0.01 µM.
Molecule `CCOC(=O)c1cc2cc(-c3ccncc3)ccc2n1CCN1CCOCC1` [Compound 12] has a Kd [1] of 2.8 ± 0.1 µM and a Kd [2] of 1.1 ± 0.1 µM.
In the case of `CCOC(=O)c1cc2cc(-c3ccncc3)ccc2n1C(=O)c1ccccc1` [Compound 6], the Kd [1] is reported as 0.12 ± 0.04 µM and the Kd [2] is reported as 0.42 ± 0.08 µM.
`COC(=O)c1cccc(-c2ccncc2)c1` [Compound 3] showed a Kd [1] of 146 µM and a Kd [2] of 1.5 µM.
Work on `NC(=O)c1cc2cc(-c3ccncc3)ccc2n1CC1CCCCC1` [Compound 13] yielded a Kd [1] of 0.45 ± 0.04 µM and a Kd [2] of 0.03 ± 0.007 µM.
`Cc1noc(-c2cc3cc(-c4ccncc4)ccc3n2CCC2CCNCC2)n1` [Compound 16] was tested, and the Kd [1] was > 100 µM, the MIC [3, 12] was 4.7 µM (≈ 1.82 µg/mL) and the MIC [3, 13] was 12.5 µM (≈ 4.84 µg/mL). The MIC ([4]; KB019, 168 h) was 9.4 µM (≈ 3.64 µg/mL), the MIC ([4]; KB019, 336 h) was 12.5 µM (≈ 4.84 µg/mL) and the MIC ([5]; 168 h) was 6.25 µM (≈ 2.42 µg/mL). For the same molecule, the MIC ([5]; 336 h) was 6.25 µM (≈ 2.42 µg/mL), the MIC ([6]; 168 h) was 6.25 µM (≈ 2.42 µg/mL) and the MIC ([6]; 336 h) was 9.4 µM (≈ 3.64 µg/mL). For the same molecule, the MIC ([7]; 168 h) was 6.25 µM (≈ 2.42 µg/mL), the MIC ([7]; 336 h) was 6.25 µM (≈ 2.42 µg/mL) and the MIC ([8]; 168 h) was 6.25 µM (≈ 2.42 µg/mL). For the same molecule, the MIC ([8]; 336 h) was 6.25 µM (≈ 2.42 µg/mL), the MIC ([9]; 53K113, 168 h) was 6.25 µM (≈ 2.42 µg/mL) and the MIC ([9]; 53K113, 336 h) was 6.25 µM (≈ 2.42 µg/mL). The MIC ([10]; 028K111, 168 h) was 6.25 µM (≈ 2.42 µg/mL), the MIC ([10]; 028K111, 336 h) was 6.25 µM (≈ 2.42 µg/mL) and the Kd [2] was 0.39 ± 0.05 µM.
For `Cc1cnc(-c2cc3cc(-c4ccncc4)ccc3n2CCC2CCNCC2)o1` [Compound 17], the Kd [1] was 5.3 ± 0.2 µM, the MIC [3, 13] was 19 µM (≈ 7.34 µg/mL) and the MIC ([4]; KB019, 168 h) was 12.5 µM (≈ 4.83 µg/mL). The MIC ([4]; KB019, 336 h) was 19 µM (≈ 7.34 µg/mL), the MIC ([5]; 168 h) was 6.25 µM (≈ 2.42 µg/mL) and the MIC ([5]; 336 h) was 6.25 µM (≈ 2.42 µg/mL). It also gave an MIC ([6]; 168 h) of 6.25 µM (≈ 2.42 µg/mL), an MIC ([6]; 336 h) of 6.25 µM (≈ 2.42 µg/mL) and an MIC ([7]; 168 h) of 4.7 µM (≈ 1.82 µg/mL). For the same molecule, the MIC ([7]; 336 h) was 4.7 µM (≈ 1.82 µg/mL), the MIC ([8]; 168 h) was 6.25 µM (≈ 2.42 µg/mL) and the MIC ([8]; 336 h) was 6.25 µM (≈ 2.42 µg/mL). It also gave an MIC ([9]; 53K113, 168 h) of 6.25 µM (≈ 2.42 µg/mL), an MIC ([9]; 53K113, 336 h) of 6.25 µM (≈ 2.42 µg/mL) and an MIC ([10]; 028K111, 168 h) of 6.25 µM (≈ 2.42 µg/mL). It also gave an MIC ([10]; 028K111, 336 h) of 6.25 µM (≈ 2.42 µg/mL) and a Kd [2] of 0.79 ± 0.05 µM.
Molecule `NNC(=O)c1ccncc1` [Isoniazid, reference compound] has an MIC [3, 14] of 0.15 µM (≈ 0.0206 µg/mL).
In the case of `CCOC(=O)c1cc2cc(-c3ccncc3)ccc2n1CC1CCNCC1` [Compound 11], the Kd [1] is reported as 14.8 ± 0.9 µM and the Kd [2] is reported as 0.71 ± 0.09 µM.
Molecule `CCCC(=O)c1cc2cc(-c3ccncc3)ccc2n1CCC1CCNCC1` [Compound 19] has a Kd [1] of 3.6 ± 0.2 µM, an MIC [3] of 9.4 µM (≈ 3.53 µg/mL) and an MIC [3, 12] of 6.25 µM (≈ 2.35 µg/mL). The MIC [3, 14] was 9.4 µM (≈ 3.53 µg/mL), the MIC [3, 13] was 12.5 µM (≈ 4.69 µg/mL) and the MIC ([3]; Table S1, H37Rv, […], 1 Week) was 12.5 µM (≈ 4.69 µg/mL). It also gave an MIC ([4]; KB019, 168 h) of 12.5 µM (≈ 4.69 µg/mL), an MIC ([4]; KB019, 336 h) of 19 µM (≈ 7.13 µg/mL) and an MIC ([5]; 168 h) of 6.25 µM (≈ 2.35 µg/mL). It also gave an MIC ([5]; 336 h) of 6.25 µM (≈ 2.35 µg/mL), an MIC ([6]; 168 h) of 6.25 µM (≈ 2.35 µg/mL) and an MIC ([6]; 336 h) of 6.25 µM (≈ 2.35 µg/mL). The MIC ([7]; 168 h) was 4.7 µM (≈ 1.76 µg/mL), the MIC ([7]; 336 h) was 4.7 µM (≈ 1.76 µg/mL) and the MIC ([8]; 168 h) was 6.25 µM (≈ 2.35 µg/mL). For the same molecule, the MIC ([8]; 336 h) was 6.25 µM (≈ 2.35 µg/mL), the MIC ([9]; 53K113, 168 h) was 6.25 µM (≈ 2.35 µg/mL) and the MIC ([9]; 53K113, 336 h) was 6.25 µM (≈ 2.35 µg/mL). It also gave an MIC ([10]; 028K111, 168 h) of 6.25 µM (≈ 2.35 µg/mL), an MIC ([10]; 028K111, 336 h) of 6.25 µM (≈ 2.35 µg/mL) and a Kd [11] of 0.23 ± 0.05 µM.
In the case of `CCOC(=O)c1cc2cc(-c3ccncc3)ccc2n1CC1CCCC1` [Compound 8], the Kd [1] is reported as 0.3 ± 0.06 µM and the Kd [2] is reported as 0.06 ± 0.01 µM.
Work on `CCOC(=O)c1cc2cc(-c3ccncc3)ccc2[nH]1` [Compound 4, ethyl 5‐(pyridin‐4‐yl)‐1H‐indole‐2‐carboxylate] yielded a Kd [1] of 3 µM and a Kd [2] of 0.75 µM.
In the case of `CCOC(=O)c1cc2cc(-c3ccncc3)ccc2n1CC1CCCCC1` [Compound 7], the Kd [1] is reported as 0.31 ± 0.03 µM and the Kd [2] is reported as 0.05 ± 0.01 µM.
Work on `NCc1ccc(-c2cnns2)cc1` [Compound 1] yielded a Kd [1] of 57.7 µM and a Kd [2] of 0.61 µM.
With `CCOC(=O)c1cc2cc(-c3ccncc3)ccc2n1CC1CCC1` [Compound 9] the Kd [1] was 1.1 ± 0.2 µM and the Kd [2] was 0.09 ± 0.01 µM.
For `COc1ccc(-c2ccncc2)cc1` [Compound 2], the Kd [1] was 58.5 ± 3.8 µM and the Kd [2] was 1.6 ± 0.1 µM.
In the case of `CCOC(=O)c1cc2cc(-c3ccncc3)ccc2n1CCC1CCNCC1` [Compound 10], the Kd [1] is reported as 5 ± 0.2 µM and the Kd [2] is reported as 0.39 ± 0.06 µM.
Work on `c1cc(-c2ccc3c(ccn3CCN3CCNCC3)c2)ccn1` [Compound 14] yielded a Kd [1] of 271 ± 13 µM and a Kd [2] of 11.1 ± 0.5 µM.
In the case of `Cc1nnc(-c2cc3cc(-c4ccncc4)ccc3n2CCC2CCNCC2)o1` [Compound 18], the Kd [1] is reported as 10.2 ± 0.1 µM, the MIC [3, 14] is reported as 25 µM (≈ 9.69 µg/mL) and the MIC [3, 13] is reported as > 50 µM. For the same molecule, the MIC ([3]; Mycobacterium tuberculosis, 336 h, Table S1, H37Rv, […], 2 Week) was 50 µM (≈ 19.4 µg/mL), the MIC ([3]; Table S1, H37Rv, […], 1 Week) was > 50 µM and the MIC ([4]; KB019, 168 h) was > 50 µM. For the same molecule, the MIC ([4]; KB019, 336 h) was 50 µM (≈ 19.4 µg/mL), the MIC ([5]; 168 h) was 50 µM (≈ 19.4 µg/mL) and the MIC ([5]; 336 h) was 50 µM (≈ 19.4 µg/mL). For the same molecule, the MIC ([6]; 168 h) was > 50 µM, the MIC ([6]; 336 h) was > 50 µM and the MIC ([7]; 168 h) was 50 µM (≈ 19.4 µg/mL). For the same molecule, the MIC ([7]; 336 h) was 50 µM (≈ 19.4 µg/mL), the MIC ([8]; 168 h) was 50 µM (≈ 19.4 µg/mL) and the MIC ([8]; 336 h) was 50 µM (≈ 19.4 µg/mL). For the same molecule, the MIC ([9]; 53K113, 168 h) was 50 µM (≈ 19.4 µg/mL), the MIC ([9]; 53K113, 336 h) was > 50 µM and the MIC ([10]; 028K111, 168 h) was 50 µM (≈ 19.4 µg/mL). The MIC ([10]; 028K111, 336 h) was > 50 µM and the Kd [2] was 0.99 ± 0.1 µM.
With `NC(=O)c1cc2cc(-c3ccncc3)ccc2n1CCN1CCNCC1` [Compound 15] the Kd [1] was 48.8 ± 2.3 µM and the Kd [2] was 2.5 ± 0.2 µM.

— paper PMC10205683, “Structure Based Discovery of Inhibitors of CYP125 and CYP142 from Mycobacterium tuberculosis” (Chemistry (Weinheim an Der Bergstrasse, Germany), 2023)
